Key:
Huh-7 = assay: Antitumor activity against human HuH7 cells xenografted in nude BALB/c mouse assessed as inhibition of tumor growth at 10 mg/kg bid for 14 days and measured twice per week relative to untreated control; assay type: functional; settings: Huh-7, 336 h, read-out: TGI
[1] = Toxicity in male BALB/c mouse assessed as induction of animal death at 450 mg/kg/day, ig dosed once daily for 4 weeks followed by rehabilitation for another 28 days; assay type: organism-based; settings: in vivo, po, 672 h
[2] = Toxicity in male BALB/c mouse at 50 to 450 mg/kg/day, ig dosed once daily for 4 weeks followed by rehabilitation for another 28 days; assay type: organism-based; settings: in vivo, po
[3] = target: Fibroblast growth factor receptor 4 (Homo sapiens, UniProt P22455); assay: Inhibition of FGFR4 (unknown origin) incubated for 60 mins by caliper microfluidic mobility shift technology based assay
[4] = target: Leukocyte tyrosine kinase receptor (Homo sapiens, UniProt P29376); assay: Inhibition of LTK (unknown origin)
Leukocyte tyrosine kinase receptor, sequence (P29376 whole entry): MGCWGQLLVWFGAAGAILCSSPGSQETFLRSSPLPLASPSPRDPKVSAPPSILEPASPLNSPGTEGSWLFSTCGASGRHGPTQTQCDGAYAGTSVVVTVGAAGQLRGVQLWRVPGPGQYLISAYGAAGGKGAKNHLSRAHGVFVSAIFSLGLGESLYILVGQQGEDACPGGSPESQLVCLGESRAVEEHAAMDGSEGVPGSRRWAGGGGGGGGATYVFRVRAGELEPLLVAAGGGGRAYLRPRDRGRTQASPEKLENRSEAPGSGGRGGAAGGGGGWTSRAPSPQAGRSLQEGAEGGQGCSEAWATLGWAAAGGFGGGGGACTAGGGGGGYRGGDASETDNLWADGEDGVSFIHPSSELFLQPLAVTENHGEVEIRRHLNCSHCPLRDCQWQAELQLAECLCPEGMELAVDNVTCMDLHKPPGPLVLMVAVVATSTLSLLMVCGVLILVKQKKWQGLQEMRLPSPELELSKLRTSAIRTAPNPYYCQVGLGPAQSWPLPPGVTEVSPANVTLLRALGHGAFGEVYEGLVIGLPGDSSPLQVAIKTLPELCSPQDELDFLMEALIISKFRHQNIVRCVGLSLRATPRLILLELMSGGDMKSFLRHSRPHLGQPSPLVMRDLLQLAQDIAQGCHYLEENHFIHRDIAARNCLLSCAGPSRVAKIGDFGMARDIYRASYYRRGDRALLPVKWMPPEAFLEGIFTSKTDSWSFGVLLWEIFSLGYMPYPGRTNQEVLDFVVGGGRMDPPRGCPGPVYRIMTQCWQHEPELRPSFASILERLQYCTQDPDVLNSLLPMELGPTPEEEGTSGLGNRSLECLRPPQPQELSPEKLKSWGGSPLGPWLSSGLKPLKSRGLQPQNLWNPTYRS

[5] = Toxicity in female BALB/c mouse assessed as effect on clinical pathology parameters at 200 to 2000 mg/kg, ig administered as single dose measured after 14 days; assay type: organism-based; settings: in vivo, po, 336 h
[6] = target: MAP kinase-activated protein kinase 2 (Homo sapiens, UniProt P49137); assay: Inhibition of MAPKAPK2 (unknown origin)
MAP kinase-activated protein kinase 2, sequence (P49137 whole entry): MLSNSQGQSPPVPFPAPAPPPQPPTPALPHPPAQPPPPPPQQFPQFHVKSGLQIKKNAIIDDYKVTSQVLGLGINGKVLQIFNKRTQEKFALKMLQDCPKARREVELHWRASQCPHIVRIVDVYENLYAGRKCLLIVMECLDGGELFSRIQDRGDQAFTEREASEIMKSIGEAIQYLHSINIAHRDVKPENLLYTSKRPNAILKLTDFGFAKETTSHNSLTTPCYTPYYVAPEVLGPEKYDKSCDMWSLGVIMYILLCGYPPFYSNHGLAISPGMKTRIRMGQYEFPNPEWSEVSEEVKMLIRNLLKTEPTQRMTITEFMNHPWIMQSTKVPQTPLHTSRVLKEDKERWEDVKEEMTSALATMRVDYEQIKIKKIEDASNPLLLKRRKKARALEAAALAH

Focal adhesion kinase 1 = Focal adhesion kinase 1 (Homo sapiens, UniProt Q05397); assay: Inhibition of FAK (unknown origin)
Focal adhesion kinase 1, sequence (Q05397 whole entry): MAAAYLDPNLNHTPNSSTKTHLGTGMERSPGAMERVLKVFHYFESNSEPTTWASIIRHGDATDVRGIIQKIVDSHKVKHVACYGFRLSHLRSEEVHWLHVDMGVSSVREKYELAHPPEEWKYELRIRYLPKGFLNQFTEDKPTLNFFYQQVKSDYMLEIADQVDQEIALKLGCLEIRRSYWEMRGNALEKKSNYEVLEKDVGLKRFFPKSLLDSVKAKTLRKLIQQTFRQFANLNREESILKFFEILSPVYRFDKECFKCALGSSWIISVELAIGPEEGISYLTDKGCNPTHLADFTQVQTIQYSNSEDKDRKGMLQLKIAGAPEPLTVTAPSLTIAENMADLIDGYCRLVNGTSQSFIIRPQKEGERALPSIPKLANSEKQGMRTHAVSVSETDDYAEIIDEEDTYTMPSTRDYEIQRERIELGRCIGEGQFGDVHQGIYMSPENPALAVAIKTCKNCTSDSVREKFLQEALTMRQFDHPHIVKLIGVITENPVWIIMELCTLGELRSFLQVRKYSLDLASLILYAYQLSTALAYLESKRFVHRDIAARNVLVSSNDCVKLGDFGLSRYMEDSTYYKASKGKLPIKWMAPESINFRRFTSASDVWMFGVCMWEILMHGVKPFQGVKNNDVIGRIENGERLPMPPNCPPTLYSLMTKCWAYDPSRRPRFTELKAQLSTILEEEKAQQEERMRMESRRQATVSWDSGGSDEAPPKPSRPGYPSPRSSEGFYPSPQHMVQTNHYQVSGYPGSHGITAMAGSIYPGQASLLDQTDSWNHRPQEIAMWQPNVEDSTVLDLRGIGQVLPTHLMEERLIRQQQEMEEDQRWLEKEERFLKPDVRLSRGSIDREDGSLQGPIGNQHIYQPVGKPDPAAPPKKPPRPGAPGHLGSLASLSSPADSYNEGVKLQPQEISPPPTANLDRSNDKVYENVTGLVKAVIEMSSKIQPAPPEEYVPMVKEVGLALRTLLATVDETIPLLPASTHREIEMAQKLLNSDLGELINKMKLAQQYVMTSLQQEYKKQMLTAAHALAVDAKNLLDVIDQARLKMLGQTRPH

[7] = target: Receptor-type tyrosine-protein kinase FLT3 (Homo sapiens, UniProt P36888); assay: Inhibition of FLT3 (unknown origin)
Receptor-type tyrosine-protein kinase FLT3, sequence (P36888 whole entry): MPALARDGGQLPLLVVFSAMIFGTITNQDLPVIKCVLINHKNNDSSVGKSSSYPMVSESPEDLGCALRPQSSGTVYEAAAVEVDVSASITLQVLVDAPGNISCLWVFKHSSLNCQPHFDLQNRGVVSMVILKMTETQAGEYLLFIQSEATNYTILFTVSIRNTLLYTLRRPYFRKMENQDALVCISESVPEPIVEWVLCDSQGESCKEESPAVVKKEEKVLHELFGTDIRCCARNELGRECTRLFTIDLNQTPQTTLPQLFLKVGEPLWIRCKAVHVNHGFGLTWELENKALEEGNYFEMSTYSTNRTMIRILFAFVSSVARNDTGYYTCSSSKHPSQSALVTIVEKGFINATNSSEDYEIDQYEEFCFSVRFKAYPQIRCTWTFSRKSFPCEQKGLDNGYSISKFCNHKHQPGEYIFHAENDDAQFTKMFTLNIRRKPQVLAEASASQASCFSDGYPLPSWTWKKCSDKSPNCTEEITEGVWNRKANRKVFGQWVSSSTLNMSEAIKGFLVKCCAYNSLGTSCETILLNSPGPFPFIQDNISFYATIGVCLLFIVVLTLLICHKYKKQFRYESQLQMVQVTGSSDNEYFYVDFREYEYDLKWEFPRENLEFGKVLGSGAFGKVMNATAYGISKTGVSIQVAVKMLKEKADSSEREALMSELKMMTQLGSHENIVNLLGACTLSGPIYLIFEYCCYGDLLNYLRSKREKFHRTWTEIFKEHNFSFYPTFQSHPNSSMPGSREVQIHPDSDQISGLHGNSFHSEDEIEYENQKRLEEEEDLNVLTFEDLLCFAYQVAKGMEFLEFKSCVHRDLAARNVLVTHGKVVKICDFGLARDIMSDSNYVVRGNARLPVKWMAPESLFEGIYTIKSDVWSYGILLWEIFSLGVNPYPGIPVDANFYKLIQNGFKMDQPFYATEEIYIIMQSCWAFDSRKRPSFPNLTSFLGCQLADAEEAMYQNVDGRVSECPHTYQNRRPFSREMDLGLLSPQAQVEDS

[8] = target: Tyrosine-protein kinase receptor UFO (Homo sapiens, UniProt P30530); assay: Inhibition of AXL (unknown origin)
[9] = target: Epidermal growth factor receptor (Homo sapiens, UniProt P00533); assay: Inhibition of EGFR (unknown origin)
Epidermal growth factor receptor, sequence (P00533 whole entry): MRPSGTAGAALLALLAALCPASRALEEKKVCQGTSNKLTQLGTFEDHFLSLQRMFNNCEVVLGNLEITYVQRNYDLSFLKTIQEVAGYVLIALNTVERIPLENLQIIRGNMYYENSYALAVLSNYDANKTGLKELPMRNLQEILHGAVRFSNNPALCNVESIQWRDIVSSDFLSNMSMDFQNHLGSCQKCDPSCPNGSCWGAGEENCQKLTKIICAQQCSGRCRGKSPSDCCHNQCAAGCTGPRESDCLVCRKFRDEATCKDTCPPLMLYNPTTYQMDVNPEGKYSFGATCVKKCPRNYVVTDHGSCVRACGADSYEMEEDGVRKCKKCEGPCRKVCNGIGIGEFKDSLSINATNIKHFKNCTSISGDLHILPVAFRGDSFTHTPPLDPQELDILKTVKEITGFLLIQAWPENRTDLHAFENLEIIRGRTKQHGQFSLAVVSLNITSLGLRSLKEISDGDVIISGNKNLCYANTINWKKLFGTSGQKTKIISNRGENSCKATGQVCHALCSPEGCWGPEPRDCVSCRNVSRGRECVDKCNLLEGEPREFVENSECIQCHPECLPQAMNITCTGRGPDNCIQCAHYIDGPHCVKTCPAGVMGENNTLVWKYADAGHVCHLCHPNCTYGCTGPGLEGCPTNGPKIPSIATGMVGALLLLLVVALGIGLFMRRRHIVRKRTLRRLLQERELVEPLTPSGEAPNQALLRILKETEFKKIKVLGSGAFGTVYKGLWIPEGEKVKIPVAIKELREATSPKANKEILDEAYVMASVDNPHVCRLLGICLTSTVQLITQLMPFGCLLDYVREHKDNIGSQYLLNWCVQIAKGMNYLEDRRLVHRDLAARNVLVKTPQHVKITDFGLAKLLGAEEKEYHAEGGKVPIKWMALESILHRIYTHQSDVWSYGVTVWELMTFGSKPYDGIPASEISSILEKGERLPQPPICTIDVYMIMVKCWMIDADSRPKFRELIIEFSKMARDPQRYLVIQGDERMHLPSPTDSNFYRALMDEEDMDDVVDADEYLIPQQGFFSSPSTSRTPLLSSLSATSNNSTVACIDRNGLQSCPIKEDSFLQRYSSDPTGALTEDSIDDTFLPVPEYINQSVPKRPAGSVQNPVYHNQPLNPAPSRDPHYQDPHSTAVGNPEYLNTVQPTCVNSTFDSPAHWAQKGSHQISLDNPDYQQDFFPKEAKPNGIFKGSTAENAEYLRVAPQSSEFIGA

Hep 3B2 = assay: Antitumor activity against human Hep3B cells xenografted in nude BALB/c mouse assessed as inhibition of tumor growth at 3 mg/kg bid for 14 days and measured twice per week relative to untreated control; assay type: functional; settings: 336 h, read-out: TGI
[10] = target: Fibroblast growth factor receptor 1 (Homo sapiens, UniProt P11362); assay: Inhibition of FGFR1 (unknown origin) incubated for 60 mins by caliper microfluidic mobility shift technology based assay

Q: What does the source list for `COC[C@@H](C)Nc1cc(NC(=O)N2CCCc3cc(CN4CCCCOC4=O)c(C=O)nc32)ncc1C#N`?
A: inhibition in vivo at 10 mg/kg (Huh-7): 28.1%; Activity [1]: Non-Toxic; NOAEL at 672 h [2]: 450 mg/kg; IC50 [3]: 0.0015 µM; IC50 [4]: > 10 µM; Activity [5]: Non-Toxic; IC50 [6]: > 10 µM; IC50 (Focal adhesion kinase 1): > 10 µM; IC50 [7]: > 10 µM; IC50 [8]: > 10 µM; IC50 [9]: > 10 µM; inhibition in vivo at 3 mg/kg (Hep 3B2): 69.8%; IC50 [10]: > 10 µM

Source: ChEMBL document CHEMBL4339212, “Novel 7-formyl-naphthyridyl-ureas derivatives as potential selective FGFR4 inhibitors: Design, synthesis, and biological activity studies” (Bioorg Med Chem, 2019)
